From US20210346354A1, “MACROPINOCYTOSIS IN CANCER” (Memorial Sloan-Kettering Cancer Center, priority 2015, published 2021)
Numbered stars: 1 amine (or outer) side, 2 acyl side, 3 side chain; on linkers, the order of the positions; unused ones are H or OH. Bridge positions count the residues as written; N and C are the ends. Square brackets hold non-standard residues; d marks the D form. Peptide text beside a SMILES is read from it. I, II: the chains in the order shown. Actinocin(9to1) = Cc1c2oc3c(C)ccc(C(=O)[*:1])c3nc-2c(C(=O)[*:2])c(N)c1=O; NMeV = CN[C@H](C(=O)O)C(C)C; Sar = CNCC(=O)O

Experiments:
[1] = tested on: mTORC1; assay: mTORC1 re-activation after 1 h EAA starvation, Western blotting against phosphorylated S6K1; format: cell-based, mouse; conditions: for albumin-dependent mTORC1 activation: 3% albumin
Description: Cells were rinsed with ice-cold PBS and detached from culture plates by incubation with ice-cold trypsin (0.05%). Trypsin was inactivated with ice-cold serum, cells pelleted and rinsed with ice cold PBS. Cells were lysed in ice-cold lysis buffer [50 mM HEPES, pH 7.4, 40 mM […], 2 mM EDTA, 1 mM Na Orthovandanate, 50 mM NaF, 10 mM Na Pyrophosphate, 10 mM Na Glycerophosphate, 1% Triton X-100, 1×Halt protease and phosphatase inhibitor cocktails (Thermo Scientific)] for 15 min, and soluble lysate fractions isolated by centrifugation at 16,000 g for 10 min. Protein concentrations were determined with the Pierce BCA Protein Assay (Thermo Scientific) and equal amounts of proteins analyzed by SDS gel electrophoresis and Western blotting following standard protocols.
(§1) Cell culture experiments were performed at 37° C. and 5% CO2 in DMEM/F12 with 10% dialyzed FBS (molecular weight cut-off 10,000; Gemini Biosystems), 100 U/mL penicillin, 100 μg/mL streptomycin, 5 mM glucose and 2 mM glutamine. For proliferation assays, MEFs were plated in complete medium, 5 h later briefly rinsed and then cultured in starvation medium as indicated. For EAA titration experiments, EAAs were supplemented at indicated percentages of 1×MEM amino acid solution (M5550, Sigma). Cancer cell lines were cultured in complete medium for 1 day prior to starvation. Numbers of adherent cells, which are >95% viable as assessed by Trypan Blue exclusion were determined using a Multisizer 4 Coulter Counter (Beckman). For mTOR activation and localization experiments, cells were rinsed and then incubated in EAA starvation medium (DMEM/F12 lacking all amino acids except glutamine) for 1 h, and subsequently placed in medium supplemented with EAAs (1×MEM amino acid solution), albumin (3%, if not stated otherwise) or fresh EAA-free starvation medium for indicated periods of time.
Cells can sense EAAs through the mTORC1 pathway, which integrates amino acid levels with inputs from growth factor signaling to promote cell growth (Ma and Blenis, 2009; Shimobayashi and Hall, 2014). When cells are placed in EAA-free medium, the ability of mTORC1 to phosphorylate downstream targets is repressed. To test if catabolism of extracellularly provided proteins could restore mTORC1 activity in the absence of EAAs, mTORC1 was inactivated by subjecting MEFs to 1 h EAA starvation. Fresh medium containing EAAs or different concentrations of albumin was then added and mTORC1 re-activation assessed by Western blotting against phosphorylated S6K1.

[2] = background statement; cited from earlier work
[3] = tested on: K-Ras^G12D MEFs; assay: Proliferation assay (cell numbers) of K-Ras^G12D MEFs in starvation medium; format: cell-based, mouse
Description: as §1

[4] = tested on: wild type MEFs; assay: Proliferation assay (cell numbers) of wild type MEFs in starvation medium; format: cell-based, mouse
Description: as §1

[5] = tested on: wild type and heterozygous K-Ras^G12D MEFs; assay: Cell numbers of wild type and K-Ras^G12D MEFs in medium lacking nutrients ±3% albumin; format: cell-based, mouse; conditions: for cell viability: 3% albumin supplementation
Description: The dashed line indicates starting cell numbers. # below detection limit. *p<0.05, ** p<0.01, ***p<0.001. […] Data are represented as mean±STDEV (n=3).
as §1
To investigate whether activation of K-Ras signaling altered a cell's ability to metabolize extracellular proteins, we compared immortalized mouse embryonic fibroblasts (MEFs) harboring wild type K-Ras or a constitutively active K-Ras^G12D allele. Albumin is the major protein in plasma and interstitial fluids, its levels ranging from 2-5%. To mimic the protein-rich composition of extracellular fluids, culture medium was therefore supplemented with 10% dialyzed fetal bovine serum ±3% albumin.

[6] = tested on: mTOR; assay: Lysosomal recruitment of mTOR, immunofluorescence against mTOR and LAMP2; format: cell-based, mouse; conditions: K-Ras^G12D MEFs
Description: For immunostainings, cells were rinsed with ice-cold PBS, fixed with 4% formaldehyde in PBS for 15 min and permeabilized with 0.05% Triton X-100 in PBS. After rinsing with PBS, cells were blocked with PBG (0.5% BSA, 0.2% cold water fish gelatin in PBS) for 30 min, incubated with primary antibodies in PBG for 1.5 h, washed two times with PBG+4% normal goat serum and then incubated with secondary antibodies in PBG+4% NGS for 45 min. After three washes with PBS, cells were mounted on microscope slides with Prolong Antifade+DAPI and imaged using a Leica TCS SP5-II.
as §1, with “For mTOR activation and localization experiments, cells were rinsed and then incubated in EAA starvation medium (DMEM/F12 lacking all amino acids except glutamine) for 1 h, and subsequently placed in medium supplemented with EAAs (1×MEM amino acid solution), albumin (3%, if not stated otherwise) or fresh EAA-free starvation medium for indicated periods of time.” left out

[7] = tested on: K-Ras^G12D MEFs; assay: Lysosomal degradation of DQ-BSA (fluorescence dequenching) in K-Ras^G12D MEFs; format: cell-based, mouse; conditions: for torin 1-induced increase in DQ-BSA fluorescence when transcription is blocked: 5 μg/ml actinomycin D or 1 μM triptolide, 30 min pre-treatment, 6 h DQ-BSA
Description: For live imaging, medium was supplemented with 0.3 mg/ml DQ Green BSA. 1 h prior to imaging, 50 nM LysoTracker Red and 0.2 μg/ml Hoechst were added. Cells were imaged either immediately after addition of DQ-BSA and torin 1, or after 5-6 h incubation using a Zeiss LSM 5 LIVE.
To characterize how cells derive leucine from extracellular proteins, cellular albumin uptake was investigated using constitutively fluorescent albumin and intracellular albumin proteolysis using a self-quenched albumin that emits fluorescence upon degradation (DQ-BSA) (Reis et al., 1998). […] It was then determined whether lysosomal albumin degradation was required to support growth during leucine starvation. […] Ras GTPases can promote cellular uptake of macromolecules through macropinocytosis (Bar-Sagi and Feramisco, 1986). […] To investigate whether this endocytic pathway contributed to albumin-dependent growth, cells were treated with the Na^+/H^+ exchange inhibitor EIPA, which blocks macropinocytosis but not other endocytic pathways (West et al., 1989).
To distinguish these possibilities, it was first tested whether mTORC1 inhibition increased internalization of extracellular macromolecules. […] It was next examined whether mTORC1 inhibition affected lysosomal degradation of internalized proteins.

[8] = K-Ras^G12D MEFs, inhibitor added at onset of starvation
[9] = EAAs at 5% of the levels in complete medium, 3% albumin
[10] = 3% albumin after 1 h EAA starvation

Question: Which “albumin-dependent mTORC1 activation” value [1, 8] does the source give for `Oc1ccc2ccccc2c1SSc1c(O)ccc2ccccc12` [IPA-3] here?
Answer: Its value is “strongly reduced”.

Question: Which “albumin-dependent mTORC1 activation” value [1, 8] does the source give for `C=C1[C@@H](C)[C@H]2[C@H](Cc3ccccc3)NC(=O)[C@]23[C@H](OC(C)=O)/C=C/[C@@](C)(O)C(=O)[C@@H](C)C/C=C/[C@H]3[C@@H]1O` [cytochalasin D] here?
Answer: Its value is “strongly reduced”.

Question: Which “albumin-dependent mTORC1 activation” value [1, 8] does the source give for `C/C1=C\[C@H](C)C[C@H](C)OC(=O)C[C@H](c2ccc(O)cc2)NC(=O)[C@@H](Cc2c(Br)[nH]c3ccccc23)N(C)C(=O)[C@H](C)NC(=O)[C@@H](C)C1` [jasplakinolide] here?
Answer: Its value is “strongly reduced”.

Question: For `CO[C@H]1C[C@@H]2CC[C@@H](C)[C@@](O)(O2)C(=O)C(=O)N2CCCC[C@H]2C(=O)O[C@H]([C@H](C)C[C@@H]2CC[C@@H](O)[C@H](OC)C2)CC(=O)[C@H](C)/C=C(\C)[C@@H](O)[C@@H](OC)C(=O)[C@H](C)C[C@H](C)/C=C/C=C/C=C/1C` [rapamycin], which stability [2] is on record?
Answer: Its stability is “not very stable”.

Question: With “albumin: bovine serum albumin (A1470, Sigma) added to medium as extracellular protein nutrient” as the molecule, how does the cell proliferation [3, 9] read?
Answer: The cell proliferation was “significant increase in proliferation”.

Question: And the cell proliferation ([3]; leucine-free medium containing 3% albumin, several consecutive days)?
Answer: Its cell proliferation is “able to sustain proliferation”.

Question: And the “albumin concentration at which proliferation could be sustained” value ([3]; low-EAA medium (5% EAAs))?
Answer: The value was “at least 1%”.

Question: And the proliferation rate ([3]; low-EAA medium, albumin concentration raised to 3%)?
Answer: The proliferation rate was “increased progressively”.

Question: And the cell numbers ([3]; medium lacking glutamine, 3% albumin supplementation)?
Answer: Its cell numbers is “increase in cell numbers, albeit to a minor extent”.

Question: What about the cell viability ([3]; medium lacking isoleucine, lysine, or arginine, physiological levels of albumin (3%)) of the same molecule?
Answer: The cell viability was “rescued cell viability”.

Question: And the “time after which mTORC1-dependent phosphorylation resumed” value [1, 10]?
Answer: The value was 2 h.

Question: And the “time to maximal levels of mTORC1-dependent phosphorylation” value [1, 10]?
Answer: Its value is 4 h.

Question: And the S6K1 phosphorylation ([1]; wild type and K-Ras^G12D MEFs, EAA-free medium with 1-3% albumin)?
Answer: The S6K1 phosphorylation was “concentration-dependent increase in S6K1 phosphorylation”.

Question: And the survival and proliferation [4, 9]?
Answer: The survival and proliferation was “improved survival of wild type MEFs, but did not support their proliferation”.

Question: What about the cell viability ([4]; low-EAA medium, increasing albumin levels (1-3%)) of the same molecule?
Answer: Its cell viability is “improved viability”.

Question: What about the cell proliferation ([5]; glucose-free medium ±3% albumin) of the same molecule?
Answer: Its cell proliferation is “ceased to proliferate, regardless of the presence of 3% albumin”.

Question: What about the cell survival ([5]; medium lacking all essential amino acids (EAAs), 3% albumin) of the same molecule?
Answer: Its cell survival is “striking rescue of cell survival”.

Question: What about the cell viability ([5]; non-essential amino acid (NEAA) starvation) of the same molecule?
Answer: The cell viability was “modestly improved viability”.

Question: And the cell viability ([5]; starved for leucine)?
Answer: Its cell viability is “completely restored”.

Question: What about the “subcellular localization of mTOR” value ([6]; 1 h EAA starvation, then 3% albumin) of the same molecule?
Answer: Its value is “localized to punctate structures that were marked by the lysosomal membrane protein LAMP2”.

Question: With `CC(C)[C@]12O[C@H]1[C@@H]1O[C@]13[C@]1(O[C@H]1C[C@H]1C4=C(CC[C@@]13C)C(=O)OC4)[C@@H]2O` [triptolide] as the molecule, how does the “torin 1-induced increase in DQ-BSA fluorescence when transcription is blocked” value [7] read?
Answer: Its value is “unaffected”.

Question: With `CCN(CC)CCCC(C)Nc1ccnc2cc(Cl)ccc12` (centres unmarked) [chloroquine] as the molecule, how does the “DQ-BSA degradation in torin 1-treated cells” value ([7]; 250 nM torin 1 plus 20 μM chloroquine or protease inhibitors, 6 h) read?
Answer: Its value is “abrogated DQ-BSA degradation”.

Question: What does the source list for `CCN(c1nc(N)c(C(=O)NC(=N)N)nc1Cl)C(C)C` [EIPA]?
Answer: cell proliferation ([3]; EIPA treatment with free leucine added to culture medium): restored; cell proliferation ([3]; leucine-free medium +3% albumin, 25 μM EIPA, day 3): strongly decreased; albumin-dependent mTORC1 activation [1, 8]: strongly reduced

Question: What does the source list for `CO/C1=C\C(C)=C\[C@@H](C)[C@@H](O)[C@@H](C)C/C(C)=C/C=C/[C@H](OC)[C@@H]([C@@H](C)[C@@H](O)[C@H](C)[C@@]2(O)C[C@@H](O)[C@H](C)[C@@H](C(C)C)O2)OC1=O` [bafilomycin A1]?
Answer: albumin-dependent mTORC1 activation [1, 8]: strongly suppressed; mTORC1 activation by EAAs [1, 8]: did not perturb; movement of mTOR to lysosomal membranes in response to albumin ([6]; 200 nM bafilomycin A1 added at onset of EAA starvation): completely blocked

Question: With `Cc1c2oc3c(C)ccc(C(=O)N[C@@H]4C(=O)N[C@H](C(C)C)C(=O)N5CCC[C@H]5C(=O)N(C)CC(=O)N(C)[C@@H](C(C)C)C(=O)O[C@@H]4C)c3nc-2c(C(=O)N[C@@H]2C(=O)N[C@H](C(C)C)C(=O)N3CCC[C@H]3C(=O)N(C)CC(=O)N(C)[C@@H](C(C)C)C(=O)O[C@@H]2C)c(N)c1=O` [actinomycin D] (I: T[dV]P[Sar][NMeV] / II: T[dV]P[Sar][NMeV]; ester I:1-I:C, II:1-II:C; linker I:N-II:N via Actinocin(9to1)) as the molecule, how does the “torin 1-induced increase in DQ-BSA fluorescence when transcription is blocked” value [7] read?
Answer: Its value is “unaffected”.
